Consider 38 molecules from the Deep4Chem optical property database.

One data set is described as follows: solvent given as SMILES. The settings on record: in CO.
Molecule `F[B-]1(F)n2c(Cl)ccc2C(c2c(Cl)cccc2Cl)=C2C=CC(NCc3ccccc3)=[N+]21` had an emission maximum of 531 nm.
On the same count and under the same terms, for `CCN1\C(=C/C=C/C=C/C2=[N+](CC)c3ccc4cc(Br)ccc4c3C2(C)C)C(C)(C)c2c1ccc1cc(Br)ccc21` the value was 702 nm.
Still for that read-out and setting: in the case of `CCCCCC(=O)c1c2c(c(C(=O)CCCCC)c3c1OC1(CCCC1)O3)OC1(CCCC1)O2` it was 611 nm; in that of `CN(C)c1nc(N)nc2c1nc(C#N)n2Cc1ccccc1`, 389 nm.
On the same count and under the same terms, in the case of `CN(C)CCCN1c2ccccc2Sc2ccc(C(F)(F)F)cc21` it was 463 nm.

The data set is the same for the next values; noted with them: in CS(C)=O.
As for `Clc1ccc(-c2c3nc(c(-c4ccc(Cl)cc4)c4ccc([nH]4)c(-c4ccc(Cl)cc4)c4nc(c(-c5ccc(Cl)cc5)c5ccc2[nH]5)C=C4N2CCOCC2)C=C3)cc1`, the emission maximum is 662 nm.
On the same count and under the same terms, in the case of `CCN1\C(=C/C=C/C=C/C2=[N+](CC)c3ccc4cc(Br)ccc4c3C2(C)C)C(C)(C)c2c1ccc1cc(Br)ccc21` it was 709 nm; in that of `CCCCOc1ccc2cc(-c3ccc(C)cc3)c(=O)oc2c1`, 431 nm.

The same data set, now with this note: in Cc1ccccc1.
As for `CC(C)CCC[C@@H](C)[C@H]1CC[C@H]2[C@@H]3CC=C4C[C@@H](OC(=O)Oc5cc(/C=C/C=C/c6ccc(N(C)C)cc6)ccc5[N+](=O)[O-])CC[C@]4(C)[C@H]3CC[C@]12C`, the emission maximum is given as 595 nm.
On to `COc1cc(/C=C/c2ccncc2)c(OC)cc1C=O`, for which the emission maximum came out at 446 nm.
On the same count and under the same terms, for `COc1ccccc1C1=NC2c3cccc4cccc(c34)C2N1c1ccccc1` (configuration not stated) the value was 379 nm; for `CN(C)c1ccc(/C=C/c2cc(/C=C/c3ccc(N(C)C)cc3)nc(N)n2)cc1`, 466 nm; for `N#Cc1c(-n2c3ccccc3c3ccccc32)c(-n2c3ccccc3c3ccccc32)c(C#N)c(-n2c3ccccc3c3ccccc32)c1-n1c2ccccc2c2ccccc21`, 535 nm.

Staying with this data set, now noted: in ClC(Cl)Cl.
`CC[n+]1c(C=C2C(=O)C(C=C3Sc4cc(Cl)ccc4N3C)=C2[O-])[se]c2ccccc21` gave an emission maximum of 699 nm.
Same read-out and setting: for `COc1ccc2cc(C3=[N+]4C(=Nc5c(-c6ccccc6)cc(-c6ccc7cc(OC)ccc7c6)n5[B-]4(F)F)C(c4ccccc4)=C3Br)ccc2c1` the value was 728 nm.
The same measure, in the same setting: for `Cc1ccc(/C2=c3\cc/c(o3)=C(\c3ccc(C)cc3)c3ccc([nH]3)-c3ccc4n3[B-](F)(F)[N+]3=C(C=CC3=C4c3cccs3)c3ccc2[nH]3)cc1` the value was 722 nm.
The molecule `Cc1cc(C)c(C2=C3C=CC=[N+]3[B-]3(c4cccc5ccccc45)Oc4cc(O)cc5c6ccc(C)cc6c6cc2n3c6c45)c(C)c1` (configuration not stated) yielded an emission maximum of 669 nm.
On the same count and under the same terms, in the case of `CN(C)c1ccc(/C=C/c2cc(/C=C/c3ccc(N(C)C)cc3)nc(N)n2)cc1` it was 511 nm; in that of `c1cc2cc(c1)c1cccc(c1)c1cccc(c1)c1cccc(c1)c1cccc(c1)c1cccc2c1`, 337 nm.

Staying with this data set, now noted: in ClCCl.
`CCCCCCOc1ccc(N(c2ccc(OCCCCCC)cc2)c2ccc(-c3sc(-c4ccc(N(c5ccc(OCCCCCC)cc5)c5ccc(OCCCCCC)cc5)cc4)c4nc(-c5ccc(OC)cc5)c(-c5ccc(OC)cc5)nc34)cc2)cc1`: the emission maximum came to 752 nm.
Same read-out and setting: in the case of `Cc1cc(C)c(-c2c3ccccc3c3ccc4cc5c(-c6c(C)cc(C)cc6C)c6ccccc6c6ccc7cc2c3c4c7c56)c(C)c1` it was 617 nm; in that of `CCN(CC)c1ccc2cc(C#N)c(=O)oc2c1`, 460 nm; in that of `c1ccc2c(-c3cc4c(ccc5sc(-c6cccc7ccccc67)cc54)s3)cccc2c1`, 423 nm.
For `CC1=C(C#Cc2ccc([Si](c3ccccc3)(c3ccccc3)c3ccccc3)cc2)C(C)=[N+]2C1=C(c1ccccc1)c1c(C)c(C#Cc3ccc([Si](c4ccccc4)(c4ccccc4)c4ccccc4)cc3)c(C)n1[B-]2(F)F`, the emission maximum was 600 nm.
For `COc1ccc2cc(C3=[N+]4C(=Nc5c(-c6ccccc6)cc(-c6ccc7cc(OC)ccc7c6)n5[B-]4(F)F)C(c4ccccc4)=C3Br)ccc2c1`, the emission maximum worked out at 728 nm.
Still for that read-out and setting: for `Cc1cc(O)c(C(=O)/C=C/c2ccc(Cl)cc2)c(=O)o1` the value was 478 nm.
The molecule `CN(/N=C1\N=C(N)C2(CCCC2)c2ccccc21)c1ccccc1` had an emission maximum of 471 nm.
Same read-out and setting: for `F[B-]1(F)n2c(Cl)ccc2C(c2c(Cl)cccc2Cl)=C2C=CC(NCc3ccccc3)=[N+]21` the value was 537 nm; for `CC(=O)c1c(N[C@@H](CC(C)C)C(=O)O)c2ccc(N(C)C)cc2oc1=O`, 446 nm; for `CCn1c2ccc(-c3ccc(-c4cccs4)s3)cc2c2cc(-c3ccc(-c4cccs4)s3)ccc21`, 430 nm.
Same read-out and setting: for `CCN1\C(=C/C=C/C=C/C2=[N+](CC)c3ccc4cc(Br)ccc4c3C2(C)C)C(C)(C)c2c1ccc1cc(Br)ccc21` the value was 714 nm; for `O=c1c2ccccc2nc2ccccn12`, 442 nm; for `COc1cc(/C=C/c2ccncc2)c(OC)cc1C=O`, 460 nm.
Still for that read-out and setting: in the case of `Cc1c2cc3c(-c4ccccc4)c4c(c(-c5ccccc5)c3cc2c2n1[B-](F)(F)[n+]1c(C)c3cc5c(-c6ccccc6)c6c7cccc8cccc(c6c(-c6ccccc6)c5cc3c1=C2c1ccccc1)c87)-c1cccc2cccc-4c12` it was 783 nm.
`COc1ccc(C#Cc2c3ccccc3c(C#Cc3ccc(OC)cc3)c3cc4ccccc4cc23)cc1` yielded an emission maximum of 576 nm.
Still for that read-out and setting: for `CCCCCCCCOc1ccc(C#Cc2c3cc4ccccc4cc3c(C#C[Si](C(C)C)(C(C)C)C(C)C)c3cc4ccccc4cc23)cc1` the value was 666 nm.
The same measure, in the same setting: in the case of `COc1cc(-c2cnc(-c3ccncc3)o2)cc(OC)c1OC` it was 465 nm; in that of `CCCCCC(=O)c1c2c(c(C(=O)CCCCC)c3c1OC1(CCCC1)O3)OC1(CCCC1)O2`, 561 nm.
The same measure, in the same setting: for `CN(C)c1nc(N)nc2c1nc(C#N)n2Cc1ccccc1` the value was 375 nm; for `CC(=O)c1ccc(-c2cccc3ncc(-c4ccccc4)n23)cc1`, 506 nm.
In the case of `COc1ccccc1C1=[N+]2C(=C(c3ccccc3)c3c4c(c(-c5ccccc5OC)n3[B-]2(F)F)C2CCC4CC2)C2=C1C1CCC2CC1`, the emission maximum turned out to be 583 nm.
The same measure, in the same setting: in the case of `CCOC(=O)COc1ccc(/C=C/C2=C3C(C)=CC(C)=[N+]3[B-](F)(F)n3c2c2ccccc2c3-c2[nH]c(C)cc2C)cc1` it was 687 nm.

The data set is the same for the next values; noted with them: in O.
`CC[N+]1(CC)CN2C(=N1)C(C(=O)O)=Cc1cc(Oc3ccccc3)ccc12` yielded an emission maximum of 485 nm.
The same measure, in the same setting: for `c1ccc2c[n+]3ccccc3cc2c1` the value was 404 nm; for `CN(C)CCCN1c2ccccc2Sc2ccc(C(F)(F)F)cc21`, 475 nm.

Staying with this data set, now noted: in O=P(c1ccccc1)(c1ccccc1)c1ccccc1Oc1ccccc1P(=O)(c1ccccc1)c1ccccc1.
The molecule `N#Cc1cc(C#N)c(-n2c3ccccc3c3cc(-c4cccc5c4c4ccccc4n5-c4cc(-n5c6ccccc6c6ccccc65)c(C#N)cc4C#N)ccc32)cc1-n1c2ccccc2c2ccccc21` had an emission maximum of 448 nm.

The data set is the same for the next values; noted with them: in OCC(F)(F)F.
`CCC1=C(C)C2=Cc3cc(I)cn3[B-](F)(F)[N+]2=C1C` displayed an emission maximum of 540 nm.
